From paper PMC4876444, “Two-Photon Enzymatic Probes Visualizing Sub-cellular/Deep-brain Caspase Activities in Neurodegenerative Models” (Scientific Reports, 2016) come the findings set out here.

Assay in data set [1]: not given
The source holds these as a separate data set.

Assay in data set [2]: not given
This is another data set of the same source.

Data set [3] deals with caspase-3-like activities in STS-induced BV2 and HeLa cells. The data set can be described thus: TPFM live-cell imaging of STS-induced apoptotic cells. The format is cell-based, mouse, human. The procedure:
Figure 3 Bioimaging of active caspases in live cells. TPFM (λex = 760 nm; λem = 480-550 nm for all AAN-probes) of STS-induced (a) BV2 cells (2 μM, 4 h) and (b) HeLa cells (1 μM, 4 h) using C3RA/C8RA (24 μM, 1 h). Panels 3/6: cells pretreated with Z-VAD(OMe)-FMK (50 μM, 1 h) before STS addition. Panels 1/4: normal cells (DMSO). (c) WB analysis of cleaved caspase-3/-8 from (a,b). (d) TPFM of normal/apoptotic Hela cells imaged by C3RA (24 μM, up) or Ac-DEVD-AMC (40 μM, down; λem = 420–500 nm). Panels 1/3: normal cells. Panels 2/4: STS-induced cells (1 μM, 4 h). Bottom inset: bright field. Top inset: one-photon images (λex = 405 nm). (e) Real-time imaging of caspase-3/-8-like activities in live BV2 cells using 24 μM of C3RA (top)/C8RA (bottom) upon STS (2 μM) stimulation over 2 h. (f) Graphical quantification of RFU extracted from (e). (g) WB analysis of time-dependent caspase-3/-8 cleavage from STS-induced (2 μM) BV2 lysates. (h) WB analysis of time-dependent caspase-3/-7/-8 activation by detection of cleaved caspase-3/-7/-8 from lysates of HeLa cells stimulated with STS (2 μM). (i) RFU from real-time imaging of caspase-3-like activity in live HeLa cells with C3RA/C3RM/C3RE (24 μM, added 1 h before STS) upon STS (2 μM) stimulation. (j) Representative images (t = 60 min) from (i). (k) IF of STS-stimulated (2 μM, 2 h) HeLa cells by anti-caspase-3 (p17) antibody (red) with 3D projections of z-stack images at 90° view and merged with MitoTracker (green, left) or ER tracker (cyan, right). (l) TPFM of caspase-1 activation in primary cortical neurons upon glucose deprivation (GD, 8 h) followed by 1-h incubation with C1RB (24 μM) or C1FS (12 μM; λem = 450–550 nm). Inset: bright field images. NC: neuron cells incubated in normal neurobasal medium. Scale bar = 10 μm in all images.
NIH/3T3, HeLa and BV2 cell lines used in our experiments were cultured in DMEM medium supplemented with 10% (for NIH/3T3 and HeLa) or 5% (for BV2) fetal bovine serum (FBS), with 100.0 mg/L streptomycin and 100 IU/mL penicillin. […]

In data set [4] the test system is NIH/3T3, BV2 and HeLa cells. The data set can be described thus: XTT cytotoxicity assay. The format is cell-based, mouse, human. To be noted: XTT assay, 12, 30, 60, 120 μM, 24 h. As for the experimental part: Supplementary Figure 4. Cytotoxicity of two-photon enzymatic probes (12, 30, 60, 120 μM) in mammalian cells (NIH/3T3, BV2 and HeLa) after incubation for 24 h, as determined by XTT assay. […]
Detection of caspase activities in mammalian cells and tissues
Cell culture. The mouse embryonic fibroblast cell line (NIH/3T3), mouse microglial cell line (BV2) and human epithelial carcinoma cell line (HeLa) used in our experiments were cultured in Dulbecco’s Modified Eagle's Medium (DMEM) supplemented with 10% (for NIH/3T3 and HeLa) or 5% (for BV2) fetal bovine serum (FBS), 100.0 mg/L streptomycin and 100 IU/mL penicillin in a humidified atmosphere of 5% CO2 at 37 °C.
XTT assay. The cytotoxicity of our probes was determined by using the XTT colorimetric cell proliferation kit (Roche) following manufacturer’s guidelines. Briefly, NIH/3T3, BV2 and HeLa cells were seeded in 20~30% confluency (since they will reach >50% confluency within 24 h) into 96-well plates and incubated overnight before the addition of probes with concentrations of 12 μM, 30 μM, 60 μM and 120 μM, respectively. Probes were applied from DMSO stocks whereby DMSO never exceeded 1% in the final solution. The same volume of DMSO was used as a negative control; and the same volume of STS (200 nM) was used as a positive control. After a total treatment time of 24 h, proliferation was assayed using the XTT assay (Supplementary Fig. 4). […]
Background: Tetrazolium dyes change colour on reduction, which living cells bring about.

Data set [5] deals with caspases (-1, -3, -6, -8 and -9). Kind of data set: In vitro selectivity against a panel of recombinant caspases. The format is biochemical, Human. To be noted: probe 6 μM, uniform conditions with caspases -1, -3, -6, -8, -9, 2-h incubation at room temperature, tetrapeptide-AMC as references. The procedure:
Figure 2 Photophysical and enzymatic properties of caspase probes. (a) Photophysical and kinetic properties of probes and free dyes. All measurements were taken in 50 mM HEPES, 50 mM NaCl, 0.1% CHAPS, 10 mM EDTA, 5% glycerol, 10 mM DTT, at pH = 7.2. (b) Time-dependent ratiometric fluorescence changes of C1RB (6 μM) incubated with caspase-1 (10 nM) over 2 h at room temperature. Data were obtained by plotting the normalized ratio of fluorescence intensity at 500 nm (F500 nm) over that at 450 nm (F450 nm). (Inset) time-dependent fluorescence emission spectra with λex = 350 nm. (c) Time-dependent “Turn-ON” effect of C1FS (6 μM) incubated with caspase-1 (10 nM) measured and normalized at 460 nm (F460 nm) over 2 h at room temperature, with the corresponding fluorescence emission spectra (inset). λex = 350 nm. […] S and N represent the fluorescence emission intensity of each reaction solution in the presence (S) and absence (N) of caspase-1. […] Normalized, relative fluorescence (RFU) values were obtained after 2-h incubation at room temperature. […]
Enzyme kinetics. […] Detailed kinetic properties of these probes were measured with target recombinant caspases using commercial tetrapeptide-AMC fluorogenic substrates as references at 25 °C in 384-well plates (Greiner Bio-One #781900). […]
shaking at 150 rpm for 24 h at 25 °C, a small portion of the reaction was analyzed by LC-MS (IT-TOF). […]

Where a SMILES comes first, the peptide text is derived from it. The star is where a group is joined. NH(6-Ac-2-naphthyl) = CC(=O)c1ccc2cc(N*)ccc2c1; Cbz = O=C(OCc1ccccc1)*; CH2F = FC*

Molecule `CC(=O)N[C@@H](Cc1ccc(O)cc1)C(=O)N[C@H](C(=O)N[C@@H](C)C(=O)N[C@@H](CC(=O)O)C(=O)Nc1ccc2cc(C(C)=O)ccc2c1)C(C)C` showed a λem (emission maximum) of 448 nm. This molecule yielded a δΦ (two-photon action cross-section) in data set [1] of 6.9 GM. This molecule returned a λex (absorption/excitation maximum) in data set [2] of 316 nm.

Consider `CC(=O)N[C@@H](CC(=O)O)C(=O)N[C@@H](CCC(=O)O)C(=O)N[C@H](C(=O)N[C@@H](CC(=O)O)C(=O)Nc1ccc2c(C)cc(=O)oc2c1)C(C)C` [Ac-DEVD-AMC], for which the “fluorescence properties for imaging caspase-3-like activities under two-photon settings, compared to C3RA” value in data set [3] (live HeLa cells, STS 1 μM 4 h, 40 μM, λex 760 nm) was “significantly poorer fluorescence properties”.

The molecule `CC(=O)c1ccc2cc(NC(=O)[C@H](CC(=O)O)NC(=O)[C@@H](NC(=O)[C@H](CCC(=O)O)NC(=O)[C@H](CC(=O)O)NC(=O)CCC[P+](c3ccccc3)(c3ccccc3)c3ccccc3)C(C)C)ccc2c1` [C3RM, TPP-DEVD-AAN] displayed a λem (emission maximum) of 448 nm. Moreover, the δΦ (two-photon action cross-section) in data set [1] came to 1.4 GM. Besides, in data set [4], the cytotoxicity result is “minimally cytotoxic”. In data set [2], this molecule came in with a λex (absorption/excitation maximum) of 317 nm.

The molecule `CC[C@H](C)[C@H](NC(=O)[C@H](CCC(=O)O)NC(=O)[C@@H](NC(C)=O)C(C)C)C(=O)N[C@@H](CC(=O)O)C(=O)Nc1ccc2cc(C(C)=O)ccc2c1` [C6RA, Ac-VEID-AAN] (Ac-VEID-{NH(6-Ac-2-naphthyl)}) registered a λem (emission maximum) of 448 nm. The molecule further registered a δΦ (two-photon action cross-section) in data set [1] of 1.8 GM. Further, in data set [2], the λex (absorption/excitation maximum) worked out at 316 nm. In data set [5], the “probe selectivity profile towards intended caspase” value is “comparatively poor selectivity profiles”.

Molecule `CC[C@H](C)[C@H](NC(C)=O)C(=O)N[C@@H](CCC(=O)O)C(=O)N[C@H](C(=O)N[C@@H](CC(=O)O)C(=O)Nc1ccc2cc(C(C)=O)ccc2c1)[C@@H](C)O` [C8RA, Ac-IETD-AAN] (Ac-IETD-{NH(6-Ac-2-naphthyl)}) had a λem (emission maximum) of 448 nm. In data set [1], this molecule gave a δΦ (two-photon action cross-section) of 2.4 GM. For the same molecule, the cytotoxicity result in data set [4] is recorded as “minimally cytotoxic”. The same molecule returned a λex (absorption/excitation maximum) in data set [2] of 316 nm.

`CC(=O)N[C@@H](CC(C)C)C(=O)N[C@@H](CCC(=O)O)C(=O)N[C@@H](Cc1c[nH]cn1)C(=O)N[C@@H](CC(=O)O)C(=O)Nc1ccc2cc(C(C)=O)ccc2c1` [C9RA, Ac-LEHD-AAN] (Ac-LEHD-{NH(6-Ac-2-naphthyl)}) gave a λem (emission maximum) of 448 nm. In data set [1], the δΦ (two-photon action cross-section) is 3.2 GM. In data set [2], this molecule had a λex (absorption/excitation maximum) of 316 nm. In data set [5], the “probe selectivity profile towards intended caspase” value is “comparatively poor selectivity profiles”.

Regarding Cbz-Val-Ala-Asp(OMe)-CH2F, the “effect of inhibitor on C3RA fluorescence in STS-induced cells” value in data set [3] (inhibitor 50 μM, 1 h before STS, BV2 and HeLa cells, C3RA 24 μM) is “inhibited”.
